Values quoted from earlier work, collected in patent publication US7678905B2, “Aminotetrahydropyrans as dipeptidyl peptidase-IV inhibitors for the treatment or prevention of diabetes” (Merck Sharp & Dohme Corp., priority 2006, dated 2010).

Legend:
hematopoiesis = conditions: mouse, cyclophosphamide-induced neutropenia
cardiac allograft = conditions: rats; survival doubled from day 7
[1] = test system: GRF degradation in plasma

Molecule: CC(C)[C@H](N)C(=O)N1CCC[C@H]1B(O)O [Val-Boro-Pro]
- effect on hematopoiesis (hematopoiesis): stimulated hematopoiesis

Molecule: CC(C)N1CCC(c2ccccc2)(c2ccccc2)CC1 [Prodipine, Pro-Pro-diphenyl-phosphonate]
- cardiac allograft survival (cardiac allograft): 14 day

Molecule: diprotin A
- degradation of GRF to GRF[3-44] in plasma [1]: prevented
